# Measurements from ChEMBL document CHEMBL4229428, “Design, synthesis, X-ray studies, and biological evaluation of novel BACE1 inhibitors with bicyclic isoxazoline carboxamides as the P3 ligand” (Bioorg Med Chem Lett, 2018).
# Target: T1, Beta-secretase 1 (Homo sapiens, UniProt P56817)
# Test: Inhibition of recombinant BACE1 (unknown origin) using fluorogenic substrate
# T1 sequence (P56817 whole entry): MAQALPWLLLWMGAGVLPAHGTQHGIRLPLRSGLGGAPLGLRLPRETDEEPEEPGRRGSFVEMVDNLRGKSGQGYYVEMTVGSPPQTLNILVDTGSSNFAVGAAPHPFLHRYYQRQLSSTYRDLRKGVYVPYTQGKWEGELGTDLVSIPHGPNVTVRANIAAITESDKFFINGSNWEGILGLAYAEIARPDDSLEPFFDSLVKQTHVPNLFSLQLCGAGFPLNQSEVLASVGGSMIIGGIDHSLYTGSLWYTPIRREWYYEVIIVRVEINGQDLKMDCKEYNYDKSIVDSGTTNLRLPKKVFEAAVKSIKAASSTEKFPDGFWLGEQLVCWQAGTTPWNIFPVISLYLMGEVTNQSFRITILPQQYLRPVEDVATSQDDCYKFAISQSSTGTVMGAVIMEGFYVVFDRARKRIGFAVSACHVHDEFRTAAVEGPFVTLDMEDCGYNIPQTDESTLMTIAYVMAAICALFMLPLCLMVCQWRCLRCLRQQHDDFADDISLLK
row,Compound,Ki
1,CC(C)CNC(=O)[C@@H](NC(=O)[C@H](C)C[C@H](O)[C@H](CC(C)C)NC(=O)[C@H](CNC(=O)OC(C)(C)C)NC(=O)C1=NO[C@@H]2OCC[C@H]12)C(C)C,809 nM
2,CSC[C@H](NC(=O)C1=NO[C@H]2OCC[C@@H]12)C(=O)N[C@@H](CC(C)C)[C@@H](O)C[C@@H](C)C(=O)N[C@H](C(=O)NCC(C)C)C(C)C,554 nM
3,CSC[C@H](NC(=O)C1=NO[C@@H]2OCC[C@H]12)C(=O)N[C@@H](CC(C)C)[C@@H](O)C[C@@H](C)C(=O)N[C@H](C(=O)NCC(C)C)C(C)C,10.9 nM
4,COc1cccc(CNC[C@@H](O)[C@H](Cc2ccccc2)NC(=O)[C@H](CS(C)(=O)=O)NC(=O)C2=NO[C@H]3OCC[C@@H]23)c1,28800 nM
5,CC(C)CNC(=O)[C@@H](NC(=O)[C@H](C)C[C@H](O)[C@H](CC(C)C)NC(=O)[C@H](CS(C)(=O)=O)NC(=O)C1=NO[C@@H]2OCCC[C@H]12)C(C)C,28.1 nM
6,CC(C)CNC(=O)[C@@H](NC(=O)[C@H](C)C[C@H](O)[C@H](CC(C)C)NC(=O)[C@H](CNC(=O)OC(C)(C)C)NC(=O)C1=NO[C@H]2OCC[C@@H]12)C(C)C,4120 nM
7,COc1cccc(CNC[C@@H](O)[C@H](Cc2ccccc2)NC(=O)[C@H](CS(C)(=O)=O)NC(=O)C2=NO[C@@H]3OCC[C@H]23)c1,41100 nM
8,CC(C)CNC(=O)[C@@H](NC(=O)[C@H](C)C[C@H](O)[C@H](CC(C)C)NC(=O)[C@H](CS(C)(=O)=O)NC(=O)C1=NO[C@@H]2OCC[C@H]12)C(C)C,110 nM
9,CC(C)CNC(=O)[C@@H](NC(=O)[C@H](C)C[C@H](O)[C@H](CC(C)C)NC(=O)[C@H](CS(C)(=O)=O)NC(=O)C1=NO[C@H]2OCCC[C@@H]12)C(C)C,630 nM
10,CC(C)CNC(=O)[C@@H](NC(=O)[C@H](C)C[C@H](O)[C@H](CC(C)C)NC(=O)[C@H](CS(C)(=O)=O)NC(=O)C1=NO[C@H]2OCC[C@@H]12)C(C)C,280 nM

# Target: T1, Beta-secretase 1
# Test: Inhibition of BACE1 (unknown origin) by cell-based assay
row,Compound,EC50
1,CSC[C@H](NC(=O)C1=NO[C@@H]2OCC[C@H]12)C(=O)N[C@@H](CC(C)C)[C@@H](O)C[C@@H](C)C(=O)N[C@H](C(=O)NCC(C)C)C(C)C,343 nM
